Experimental data: US11530206B2, “Phenylaminopyrimidine amide autophagy inhibitors and methods of use thereof” (Deciphera Pharmaceuticals, LLC, priority 2019, dated 2022)

Tested on: ULK kinase
Experiment: pATG13 levels of mutant KRas HCT-116 cells after treatment with ULK inhibitors in combination with trametinib (ELISA)
Assay type: cell-based, human
Conditions: HCT-116 colon cancer cells, 250 nM trametinib, overnight, pS318-ATG13
Experimental: The following day, 10 μL of media containing trametinib or DMSO as a control was added to wells. […] A dose response of a test compound (0.6 μL per well) was added. DMSO (0.6 μL) was added to control wells. The plate was briefly shaken to mix wells and then incubated at 37° C. overnight. The next day, the media was aspirated and cells were washed with Dulbecco's Phosphate Buffered Saline (Gibco). Cells were lysed using MPER lysis buffer (Pierce, Rockford, Ill.) containing Halt Phosphatase and Protease Inhibitors (Pierce, Rockford, Ill.) and Phosphatase inhibitor cocktail 2 (Sigma, St. Louis, Mo.) at 4° C. for 10 minutes with shaking.
Plate wells were washed with ELISA wash buffer. Cell lysate was added to wells and incubated at room temperature for 2 hours. Plate wells were washed with ELISA wash buffer. […] Plate wells were washed with ELISA wash buffer. […] Plate wells were washed with ELISA wash buffer. […] The reaction was stopped with 2N Sulfuric Acid. The plate was analyzed at on a plate reader measuring absorbance at 450 nm and 540 nm (background). Signal was calculated by first subtracting the background absorbance at 540 nm from the absorbance at 450 nm for each well. Next, the background corrected absorbance at 450 nm from blank wells was subtracted from test wells. Data was compared to control wells to determine % ATG13 phosphorylation. GraphPad Prism was used to calculate IC50 values.

| SMILES | IC50 [nM] |
| --- | --- |
| CN1CCN(c2ccc(Nc3ncc(C(F)(F)F)c(NCCCN4CCCCC4=O)n3)c(C3CC3)c2)CC1 [Example 14] | 10 to 100 |
| CCc1cc(N2CCN(C)CC2)ccc1Nc1ncc(C(F)(F)F)c(NCCCN2CCCOC2=O)n1 [Example 39] | 10 to 100 |
| CN1CCN(c2ccc(Nc3ncc(C(F)(F)F)c(NCCCN4CCCOC4=O)n3)c(C3CC3)c2)CC1 [Example 41] | 10 to 100 |
| CCc1cc(N2CCNCC2)ccc1Nc1ncc(C(F)(F)F)c(NCCCN2CCCOC2=O)n1 [Example 46] | 100 to 300 |
| CN1CCN(c2ccc(Nc3ncc(C(F)(F)F)c(NCCCN4CCCOCC4=O)n3)c(C3CC3)c2)CC1 [Example 52] | 10 to 100 |
| CN1CCN(c2ccc(Nc3ncc(Cl)c(NCCCN4CCCOCC4=O)n3)c(C3CC3)c2)CC1 [Example 55] | 10 to 100 |
| CN1CCN(c2ccc(Nc3ncc(C(F)(F)F)c(NCCCN4CCOCCC4=O)n3)c(C3CC3)c2)CC1 [Example 70] | 10 to 100 |
| CCc1cc(N2CC3CCC(C2)N3C)ccc1Nc1ncc(C(F)(F)F)c(NCCCN2CCOCCC2=O)n1 [Example 74] | 10 to 100 |
| CCc1cc(N2CCN(C)CC2)ccc1Nc1ncc(Br)c(NCCCN2CCOCCC2=O)n1 [Example 76] | 10 to 100 |
| CCc1cc(N2CCNCC2)ccc1Nc1ncc(C(F)(F)F)c(NCCCN2CCOCCC2=O)n1 [Example 84] | 10 to 100 |
| CCc1cc(N2CCN(C)CC2)c(F)cc1Nc1ncc(C(F)(F)F)c(NCCCN2CCOCCC2=O)n1 [Example 86] | 100 to 300 |
